According to patent US20110268722A1, “COMBINATION THERAPIES WITH MITOCHONDRIAL-TARGETED ANTI-TUMOR AGENTS” (priority 2010, published 2011):
Where a SMILES comes first, the peptide text is derived from it. The star is where a group is joined. Cbz = O=C(OCc1ccccc1)*; CH2F = FC*

Assays:
U251 cells [1] = test: Annexin V / propidium iodide flow cytometry; format: cell-based, human; conditions: 5 μM TPP-GA, 25 ng/ml TRAIL, alone or combined
LN229 cells [2] = test: Western blotting of caspase, BID and PARP cleavage; format: cell-based, human; conditions: 5 μM TPP-GA, 200 ng/ml TRAIL, alone or combined, 16 hours
Procedure: (§1) Western blotting was employed to elucidate the proteolytic mechanism in TRAIL and TRAIL+Gamitrinib-induced apoptosis. Since Gamitrinibs augment TRAIL-induced apoptosis, the activation/cleavage of caspases-3, -7, -8, -9, BH3 interacting domain death agonist (BID), and Poly-ADP-ribose polymerase (PARP) was examined. […] The time course of activation/cleavage of caspases-3, -7, -8, -9, BID, and PARP over 24 hours was also examined following treatment of LN229 (FIG. 3C) or U251 (FIG. 3D) cells with 5 μM TPP-GA and 200 or 20 ng/ml TRAIL, respectively.

U251 cells [3] = test: Western blotting of caspase, BID and PARP cleavage; format: cell-based, human; conditions: 5 μM TPP-GA, 20 ng/ml TRAIL, alone or combined, 16 hours
Procedure: as §1

[4] = tested on: U87-luc glioblastoma cells; test: Orthotopic glioblastoma tumor model, bioluminescence imaging; format: in vivo; conditions: CB17 SCID/beige mice; TRAIL 2 μg intracranially, TPP intraperitoneally
Procedure: Since Gamitrinib-TPP dramatically sensitizes cancer cells in vitro it was of highest interest to assess efficacy in vivo. To this end, efficacy of TRAIL, TPP, or the combination of both was determined in an orthotopic glioblastoma tumor model. Twenty nude mice were intracranially injected with U87-luc glioblastoma cells. U87 glioblastoma cells stably transfected with a luciferase expression plasmid (U87-Luc) were suspended in sterile PBS, pH 7.2, and stereotactically implanted (1×10^5) in the right cerebral striatum of immunocompromised CB17 SCID/beige female mice (Charles River Laboratories). Treatment group 1 received only vehicle solutions. Group 2 received TRAIL intracranially (2 μg) and carrier solution intraperitoneally. Group 3 received PBS intracranially and TPP intraperitoneally in a carrier solution consisting of 20% Cremophor in PBS. Group 4 received both TRAIL and TPP. Tumor growth was assessed after each intracranial injection by application of 58 mg/kg D-luciferin and subsequent bioluminescence imaging using a Xenogen In Vivo Imaging System. […]
Five days after injection of U87-luc glioblastoma cells, the mice were scanned, quantified and according to signal strength randomized into 4 treatment groups (Group 1: Vehicle, Group 2: TRAIL, Group 3: TPP, Group 4: TRAIL+TPP) (FIGS. 5A, 6A).

cancer cells = test: Pan-caspase inhibitor effect on TRAIL+Gamitrinib apoptosis and caspase cleavage; format: cell-based
Procedure: as §1

U87 cells [5] = test: MTT viability with inhibitors of phagosome formation plus G-TPP; format: cell-based, human; conditions: inhibitor 1 hour then G-TPP, MTT after 16 hours
Procedure: FIG. 11A is a graph of the percent viability of U87 cells following incubation with inhibitors of phagosome formation, bafilomycin A (BF) or 3-methyladenine (3-MA), for 1 hour and treatment with G-TPP. MTT analysis was performed after 16 hours with MTT. The mean data±standard deviation are shown.
(§2) For autophagy, glioblastoma cells were transfected with an LC3-GFP cDNA by FuGENE HD (Roche), treated with vehicle, nontargeted 17-AAG, or G-TPP, and analyzed by fluorescence microscopy. […] An average of 200 cells was counted in 4-6 independent fields per condition. In some experiments, G-TPP-treated cells were incubated with pharmacologic inhibitors of autophagy, BF, or 3-MA, and analyzed after 16 hours for modulation of cell viability by MTT.

LN229 cells [6] = test: Electron microscopy of treated cells; format: cell-based, human; conditions: 5-10 μM, 16 hours
Procedure: Subconfluent monolayers of LN229 cells were incubated with PBS, pH 7.2, or G-TPP or nontargeted 17-AAG (5-10 μM) for 16 hours at 37° C. Cells were washed briefly in 0.1 M PBS, pH 7.4, fixed in buffered 2.5% glutaraldehyde (GA) with or without 4% formaldehyde (FA) or for 30 minutes at 22° C., post-fixed in 1% osmium tetroxide, and processed by standard methods for epoxy embedding. In some experiments, cells were fixed in buffered 3% FA with 0.1% GA for 25 minutes at 22° C., washed, quenched with NH4Cl, and dehydrated for embedding in LR White resin. Ultrathin sections on nickel grids were treated for heat-induced antigen retrieval and blocked with buffered 1% BSA, as described in published protocols (Yamashita et al., Methods Mol. Biol. 657:237-248, 2010). Samples were incubated with an antibody to COX IV, followed by a colloidal gold-conjugated (12 nm) secondary antibody of appropriate specificity (Jackson ImmunoResearch). Grids were briefly post-fixed with 2% GA, washed, air dried, and then exposed to osmium tetroxide vapors for 20 minutes. Ultrathin sections were stained with uranyl acetate and lead citrate before examination in a Philips CM10 transmission electron microscope.

[7] = tested on: NF-κB promoter in U251 cells; test: NF-κB luciferase promoter activity; format: cell-based, human; conditions: U251, luciferase normalized to β-galactosidase
Procedure: FIG. 12A is a graph showing the relative light units (RLU) of U251 cells from luciferase produced from a NF-κB promoter following no treatment or treatment with G-TPP or TRAIL. The luciferase data are normalized to β-galactosidase. TRAIL (800 ng/mL) was used as a control. The mean data±standard deviation are shown.
FIG. 12B is a graph showing the RLU of U251 cells from luciferase produced from a NF-κB promoter following no treatment or treatment with G-TPP in the presence or absence of TNF-α. The luciferase data are normalized to β-galactosidase. The mean data±standard deviation are shown.
(§3) FIG. 14B is a graph showing the RLU of U251 cells from luciferase produced from a NF-κB or cFLIP promoter following treatment with non-targeted 17-AAG. Cells were analyzed after 9 hours for luciferase activity. The mean data±SEM of replicates of a representative experiment are shown.
(§4) Tumor cell types were transfected with NF-κB (Mehrota et al., Cancer Cell 17:53-64, 2010), p53, or FLIP luciferase promoter construct (pGL3-FLIP1500; Addgene #16016) using FuGENE HD. After 24 hours at 37° C., cells were stimulated with G-TPP or 17-AAG (0-10 μM) for 6 hours, harvested, and analyzed for β-galactosidase-normalized luciferase activity in a luminometer, as described (Mehrota et al., Cancer Cell 17:53-64, 2010). In some experiments, β-galactosidase-normalized NF-κB promoter activity was examined after cell stimulation with TNF-α, as described (Mehrota et al., Cancer Cell 17:53-64, 2010).

[8] = tested on: FLIP promoter in U251 cells; test: FLIP luciferase promoter activity; format: cell-based, human
Procedure: FIG. 13A is a graph showing the RLU of U251 cells from luciferase produced from a FLIP promoter following no treatment or treatment with two different concentrations of G-TPP. The luciferase data are normalized to β-galactosidase. The mean data±standard deviation are shown.
as §3, §4

U87 cells [9] = test: LC3 immunoblot (autophagy); format: cell-based, human; conditions: over time
Procedure: FIG. 10A is an immunoblot of lysates from U87 cells following treatment with G-TPP for the indicated periods of time. The position of the unmodified (I) and lipidated form (II) form of LC3 are indicated.
(§5) The various cell types were seeded in triplicate onto 96-well plates at 2×10^3 cells/well, treated with vehicle, G-TPP, or nontargeted 17-AAG (0-20 μM) for up to 24 hours, and quantified for metabolic activity by a 3(4,5-dimethyl-thyazoyl-2-yl)2,5 diphenyltetrazolium bromide (MTT) colorimetric assay with absorbance at 405 nm, as described in Plescia et al. (Cancer Cell 7:457-468, 2005). Changes in protein expression under the various combination regimens were determined by immunoblotting.

U251 cells [10] = test: LC3-GFP fluorescence microscopy (autophagy); format: cell-based, human; conditions: 16 hours
Procedure: FIG. 10B is a fluorescence photomicrograph and a graph of the percentage of fluorescent U251 cells following transfection of U251 cells with LC3-GFP and treatment for 16 hours with vehicle (left photomicrograph) or G-TPP (right photomicrograph).
as §2

FLIP in LN229 cells = test: FLIP protein immunoblot; format: cell-based, human
Procedure: FIG. 13B is two immunoblots lysate from LN229 cells following treatment with G-TPP. The top immunoblot is a dose response experiment. The bottom immunoblot is a time-course experiment. FLIP (L) is the FLIP long form. FLIP(S) is the FLIP short form.
as §5

[11] = tested on: RelB, Bcl-3 mRNA in LN229 cells; test: RelB and Bcl-3 mRNA expression; format: cell-based, human
Description: FIG. 13C is a Northern blot showing the PCR-amplified expression of RelB, Bcl-3, and GAPDH mRNA in LN229 cells following treatment with G-TPP.

[12] = tested on: p53 promoter in MCF-7 cells; test: p53 luciferase promoter activity; format: cell-based, human; conditions: MCF-7, after 5 hours
Procedure: FIG. 14A is a graph showing the RLU of MCF-7 cells from luciferase produced from a p53 promoter following no treatment or treatment with G-TPP, Eto 10, Eto 10 and G-TPP, Eto 20, and Eto 20 and G-TPP. Cells were analyzed after 5 hours for β-galactosidase-normalized p53 luciferase promoter activity.
as §4

| Molecule | Annexin V positive and PI-negative tumor cells (apoptosis) (U251 cells [1]) | cleavage of caspase-3 or -7 (LN229 cells [2]) | cleavage of caspase-3 or -7 (U251 cells [3]) | tumor size (bioluminescence) [4] | glioblastoma cell death induced by suboptimal concentrations of G-TPP (MTT) (U87 cells [5]) | cell ultrastructure (electron microscopy) (LN229 cells [6]) | NF-κB-mediated gene expression, constitutive [7] | FLIP promoter activity [8] | further results |
| --- | --- | --- | --- | --- | --- | --- | --- | --- | --- |
| TRAIL: Recombinant TRAIL obtained from Peprotech; death receptor agonist | no significant effects | did not or only weakly induce cleavage of caspase-3 or -7 | did not or only weakly induce cleavage of caspase-3 or -7 | did not show any significant reduction in tumor size |  |  |  |  |  |
| COC(=O)CC(NC(=O)C(C)NC(=O)C(NC(=O)OCc1ccccc1)C(C)C)C(=O)CF (stereo not drawn) [zVAD-fmk, benzyloxycarbonyl-Val-Ala-Asp(OMe)-fluoromethyl-ketone] (Cbz-Val-Ala-Asp(OMe)-CH2F; configuration not given here) |  |  |  |  |  |  |  |  | effect on cleavage of caspases induced by the combination of TRAIL and TPP-GA (cancer cells; Western blotting): abolished cleavage of caspases; effect on TRAIL+Gamitrinib mediated apoptosis (cancer cells; pan-caspase inhibitor added to the combination): significantly attenuated |
| CO/C1=C\C(C)=C\[C@@H](C)[C@@H](O)[C@@H](C)C/C(C)=C/C=C/[C@H](OC)[C@@H]([C@@H](C)[C@@H](O)[C@H](C)[C@@]2(O)C[C@@H](O)[C@H](C)[C@@H](C(C)C)O2)OC1=O [bafilomycin A] |  |  |  |  | enhanced glioblastoma cell death |  |  |  |  |
| Cn1cnc(N)c2ncnc1-2 [3-methyladenine] |  |  |  |  | enhanced glioblastoma cell death |  |  |  |  |
| C=CCNC1=C2C[C@@H](C)C[C@H](OC)[C@H](O)[C@@H](C)/C=C(\C)[C@H](OC(N)=O)[C@@H](OC)/C=C\C=C(/C)C(=O)NC(=CC1=O)C2=O [Gamitrinib 17-AAG, 17-allylamino demethoxygeldanamycin, reference compound] |  |  |  |  |  | unremarkable | no effect | no effect |  |
| CO[C@H]1/C=C\C=C(/C)C(=O)NC2=CC(=O)C(NCCCCCC[P+](c3ccccc3)(c3ccccc3)c3ccccc3)=C(C[C@@H](C)C[C@H](OC)[C@H](O)[C@@H](C)/C=C(\C)[C@@H]1OC(N)=O)C2=O [Gamitrinib-TPP, triphenylphosphonium geldanamycin] | no significant effects | did not or only weakly induce cleavage of caspase-3 or -7 | did not or only weakly induce cleavage of caspase-3 or -7 | did not show any significant reduction in tumor size |  | became completely filled with cytoplasmic vacuoles | complete ablation | rapid downregulation | LC3 lipidated form (immunoblot) (U87 cells [9]): accumulated a lapidated form of the ubiquitin-like protein, light chain 3 (LC3); LC3-GFP fluorescence pattern (U251 cells [10]): exhibited a punctate fluorescence pattern; NF-κB-mediated gene expression after stimulation with TNF-α [7]: complete ablation; FLIP protein expression (FLIP in LN229 cells): rapid downregulation; RelB and bcl-3 mRNA [11]: rapid downregulation; etoposide-mediated induction of p53 luciferase promoter activity [12]: unaffected |
